In patent US12605397B2, “Deoxy-cytidine or uridine derivatives for use in cancer therapies” (HEMISPHERIAN AS, priority 2019, dated 2026):
“Also recorded” adds a separate entry of the source. Like-named read-outs stand apart in the source and are kept apart here.

Key:
[1] = tested on: HAP1 cells; test: Survival assay (MTT), HAP1; assay type: cell-based, human
Procedure: (§1) Cells were incubated with the drugs for 72 hours.

[2] = tested on: V79 cells; test: Survival assay (MTT), V79; assay type: cell-based; conditions: Cricetulus griseus, V79, Chinese Hamster Lung, 72 hours
Procedure: (§2) Cells were passed between 70 and 90% confluence.
as §1

[3] = tested on: Buffy A cells; test: Survival assay (MTT), Buffy A; assay type: cell-based, human; conditions: Homo sapiens, Normal, Bone Marrow, 72 hours
Procedure: as §2, §1
(§3) The present inventors further investigated the extent to which these compounds kill normal human cells; low cytotoxicity against normal human cells is advantageous property for anti-cancer agents. The cytotoxicity of these compounds in various normal human cell lines was therefore investigated (Table 3). Cells were grown and the survival assay was performed as described above (Materials and Methods).

[4] = tested on: Buffy C cells; test: Survival assay (MTT), Buffy C; assay type: cell-based, human; conditions: Homo sapiens, Normal, Bone Marrow, 72 hours
Procedure: as §2, §1, §3

[5] = tested on: Buffy M cells; test: Survival assay (MTT), Buffy M; assay type: cell-based, human; conditions: Homo sapiens, Normal, Bone Marrow, 72 hours
Procedure: as §2, §1, §3

[6] = tested on: normal (non-cancerous) human cell lines; test: Survival assay, panel of normal (non-cancerous) human cell lines; assay type: cell-based; conditions: normal human cell lines of Table 3
Procedure: as §1, §3

[7] = tested on: human cancer cell lines; test: Survival assay, range of human cancer cell lines; assay type: cell-based; conditions: cell lines of Table 1
Procedure: as §1
With the knowledge that 5-formyl-2′-deoxycytidine is cytotoxic to cervical carcinoma (HeLa) cells, the study was expanded in two directions: (i) a further compound was assessed: 5-carboxyl-2′-deoxycytidine; and (ii) their cytotoxic effects against a wide range of human cancer cell lines was assessed (Table 1).

[8] = mouse, in vivo, ip
Procedure: 5-hydroxymethyl-2′-deoxycytidine and 5-formyl-2′-deoxycytidine (Berry and Associates), were formulated in dimethyl sulfoxide (DMSO)/Solutol (RTM) R HS15/phosphate buffered saline (PBS) (5/5/90, v/v/v) at the concentration of 30 and 200 and 400 mg/mL for IP administration at the dosing volume of […]. A dosing volume at 10 or 20 ml/kg was applied.
Male ICR mice weighing 23±3 g were provided by BioLasco Taiwan (under Charles River Laboratories Licensee). […] All animals were maintained in a hygienic environment with controlled temperature (20-24° C.), humidity (30%-70%) and 12 hours light/dark cycles. Free access to sterilized standard lab diet [MFG (Oriental Yeast Co., Ltd., Japan)] and autoclaved tap water were granted.
5-hydroxymethyl-2′-deoxycytidine and 5-formyl-2′-deoxycytidine were administered IP to groups of three male ICR mice weighing 23±3 g. Animals received an initial dose of 300 mg/kg. If the animals survived for 72 hours, the dose for the next cohort was increased. If one or more animals died, the dose for the next cohort was decreased. The testing stopped when all animals survived at the upper bound, or when three dose levels had been tested or when the upper or lower bound had been reached. […] Body weights were recorded pre-dose and at 72 hours. […] Gross necropsy was performed on all animals without tissue collection, and the next dose level was determined based on the study design table.
The maximum tolerated dose (MTD) of these compounds in mice was determined as described above (Materials and Methods). […] While the end-point of the study was survival after 72 hours, the presence of acute toxic symptoms (mortality, convulsions, tremors, muscle relaxation, sedation, etc.) and autonomic effects (diarrhea, salivation, lacrimation, vasodilation, piloerection, etc.) in the animals was monitored during the first 30 minutes, and again at 1, 24, 48 and 72 hours. Body weights were recorded pre-dose and at 72 hours.

[9] = Multiple MTD, repeated dose; assay type: in vivo; conditions: mice, IP 300, 1000, 2000 mg/kg every three days, 5 doses
Procedure: The test compounds were dosed every three days for a total of 5 doses (q3dx5).
In addition, body weights were recorded before each treatment and at 24, 48 and 72 hours after the final administration.
Mice were injected with the indicated compound at the indicated dose intraperitoneally once every three days for a total of 5 doses.

[10] = tested on: Hypoxanthine-guanine phosphoribosyltransferase (HPRT) gene in V79 cells; test: HPRT mutagenicity assay; assay type: cell-based, Chinese Hamster; conditions: V79 cells, 1, 10, 100 μM, 24 hours
Procedure: HPRT mutagenicity assay was performed in V79 cells. 50,000 V79 cells were treated with three different concentrations of either d5hmC or d5fC (1, 10, 100 μM) for 24 hours in a 6 well plate. DMSO was used as a negative control. After the treatment, the cells were subcultured as needed in T75 flasks for 9 days to allow expression of HPRT-mutants. 10,000 cells were replated into 10 replica Petri dishes (100×15 mm) with selective media (2.5 μg/ml of 6TG).
Survival (relative plating efficiency) was determined by plating 200 cells into four replica Petri dishes (60×15 mm) without selective media. Colonies were fixed, Giemsa-stained and counted 7 days later. The mutant frequency is expressed as a total number of mutants counted on all plates divided by the number of cells seeded corrected by reseeding plating efficiency. Experiment was performed three times, data represent mean of triplicate±SEM.

[11] = tested on: H1437 cells; test: Survival assay (MTT), H1437; assay type: cell-based; conditions: Homo sapiens, NCI-H1437
Procedure: as §2, §1

[12] = tested on: H1573 cells; test: Survival assay (MTT), H1573; assay type: cell-based; conditions: Homo sapiens, NCI-H1573
Procedure: as §2, §1

[13] = tested on: glioblastoma multiforme; conditions: glioblastoma multiforme patients; cited from earlier work
[14] = Homo sapiens, HAP1, HAP1, Tables 6 and 7, unit inferred

SMILES | IC50 ([1]; HAP1, Chronic Myelogenous Leukemia (CML), 72 hours, MTT) [µM] | IC50 [1, 14] [µM] | IC50 [2] [µM] | IC50 [3] [µM] | IC50 [4] [µM] | IC50 [5] [µM] | cytotoxicity to normal cell lines [6] | cytotoxicity in the cancer cell lines evaluated [7] | tolerability of a single dose ([8]; 300 mg/kg) | tolerability of a single dose ([8]; 2000 mg/kg) | tolerability of a single dose ([8]; 8000 mg/kg) | body weight compared with untreated animals [9] | mutagenicity / genotoxicity (HPRT mutant frequency) [10] | IC50 ([1]; Homo sapiens, HAP1, 72 h, HAP1, Chronic Myelogenous Leukemia (CML), 72 hours, MTT) [µM] | IC50 ([11]; H1437, Lung (metastatic non-small cell adenocarcinoma), 72 hours, MTT) [µM] | IC50 ([11]; H1437, Tables 6 and 7, unit inferred) [µM] | IC50 ([12]; H1573, Lung (metastatic adenocarcinoma), 72 hours, MTT) [µM] | IC50 ([12]; H1573, Tables 6 and 7, unit inferred) [µM] | improvement of overall survival [13] [months]
Nc1nc(=O)n([C@H]2C[C@H](O)[C@@H](CO)O2)cc1CO [2d5hmC, 5-hydroxymethyl-2′-deoxycytidine] | > 3.03 | 6.53 | > 25 | > 25 | > 25 | > 25 | not cytotoxic to any of the normal cell lines evaluated | only cytotoxic to two cell lines evaluated | can tolerate | can tolerate | unable to tolerate | not statistically different | not to be mutagenic; also recorded: not mutagens | – | – | – | – | – | –
Nc1nc(=O)n([C@H]2C[C@H](O)[C@@H](CO)O2)cc1C=O [2d5fC, 5-formyl-2′-deoxycytidine] | – | ≥ 25 | > 25 | > 25 | > 25 | > 25 | cytotoxic only to one normal human cell line | cytotoxic to a wide range of human cancer cells | can tolerate | can tolerate | unable to tolerate | not statistically different | not to be mutagenic; also recorded: not mutagens | > 25 | 5.65 | 5.65 | 7.72 | 7.72 | –
Cn1nnc2c(C(N)=O)ncn2c1=O [Temozolomide, 4-methyl-5-oxo-2,3,4,6,8-pentazabicyclo[4.3.0]nona-2,7,9-triene-9-carboxamide, reference compound] | – | – | – | – | – | – | – | – | – | – | – | – | – | – | – | – | – | – | 2.5
